Assay results: patent US20240201204A1, “Biomarker and Druggable Target of Neurodegeneration” (University Hospitals Cleveland Medical Center, priority 2020, published 2024)

How the values were obtained:
Format in all cases: in vivo, mouse
[1] = test system: IL-1β; assay: IL-1β expression in cerebral cortex after TBI (qPCR); conditions: 25 mg/kg salsalate
Experimental: (§1) Drug preparation and administration: CGP3466B (Sigma-Aldrich, SML1941) was dissolved in DMSO and then diluted in sterile saline. The final working stock was 0.0014 mg/ml for administering the 0.014 mg/kg dose. Intraperitoneal administration of CGP3466B was initiated 15 min or 24 h after injury, and tissues were harvested 6 h (for SNO-GAPDH, SNO-SIRT1 measurement) or 2 weeks (for ac-tau measurement) later, respectively. Salsalate (AdipoGen, AG-CR1-3574) was dissolved in DMSO and then diluted in sterile PBS. The final working stocks were as follows: 2.5 mg/ml (25 mg/kg dose), 1 mg/ml (10 mg/kg dose), 0.5 mg/ml (5 mg/kg dose). Daily intraperitoneal administration of salsalate was initiated 24 hr after injury and continued throughout behavioral testing. P7C3-A20 and FK866 (Sigma-Aldrich, F8557) were first dissolved in 1 vol of DMSO, followed by addition of 4 vol of Kolliphor and vigorously vortexing. The solution was then diluted with 30 vol of filtered 5% dextrose (pH 7.0). EX527 (Selleckchem, S1541) was dissolved in 1% DMSO+30% polyethylene glycol+1% Tween 80. Daily intraperitoneal administration of P7C3-A20 was initiated 24 hr after poly-traumatic brain injury. EX527 (10 mg/kg) was administer once a day and FK866 was treated twice per day, with the first injection given at the same time as P7C3-A20 (20 mg/kg) and the second injection given 6 h later (LoCoco et al., 2017 eLife). […]

[2] = test system: tau; assay: Tau phosphorylation at S262 after TBI (western blot); conditions: salsalate treatment after TBI, vs. Sham-Injury
Experimental: as §1, with “7.0).” for “7.0). EX527 (Selleckchem, S1541) was dissolved in 1% DMSO+30% polyethylene glycol+1% Tween 80. Daily intraperitoneal administration of P7C3-A20 was initiated 24 hr after poly-traumatic brain injury. EX527 (10 mg/kg) was administer once a day and FK866 was treated twice per day, with the first injection given at the same time as P7C3-A20 (20 mg/kg) and the second injection given 6 h later (LoCoco et al., 2017 eLife).”
Western blotting: Western blotting was performed as described previously (Min et al., 2010), with the 9AB antibody against acetylated-tau generated in the Gan laboratory. […] Lysates were centrifuged at 170,000 g at 4° C. for 15 min and at 18,000 g at 4° C. for 10 min, after which protein concentrations of supernatants were measured by bicinchoninic acid assay (Thermo Scientific, A53225). […]

[3] = Body weight during treatment after TBI; conditions: salsalate daily IP from 24 h after TBI
Experimental: Drug preparation and administration: CGP3466B (Sigma-Aldrich, SML1941) was dissolved in DMSO and then diluted in sterile saline. The final working stock was 0.0014 mg/ml for administering the 0.014 mg/kg dose. […] Salsalate (AdipoGen, AG-CR1-3574) was dissolved in DMSO and then diluted in sterile PBS. The final working stocks were as follows: 2.5 mg/ml (25 mg/kg dose), 1 mg/ml (10 mg/kg dose), 0.5 mg/ml (5 mg/kg dose). Daily intraperitoneal administration of salsalate was initiated 24 hr after injury and continued throughout behavioral testing. […] and FK866 (Sigma-Aldrich, F8557) were first dissolved in 1 vol of DMSO, followed by addition of 4 vol of Kolliphor and vigorously vortexing. The solution was then diluted with 30 vol of filtered 5% dextrose (pH 7.0). EX527 (Selleckchem, […]) was dissolved in 1% DMSO+30% polyethylene glycol+1% Tween 80. Daily intraperitoneal administration of […] was initiated 24 hr after poly-traumatic brain injury. EX527 (10 mg/kg) was administer once a day and FK866 was treated twice per day, with the first injection given at the same time as […] (20 mg/kg) and the second injection given 6 h later (LoCoco et al., 2017 eLife). […] The solution was then diluted with 7 vol of saline to the appropriate concentration for administration at 25, 50, or 100 mg/kg.

[4] = test system: CCL2; assay: CCL2 expression in cerebral cortex after TBI (qPCR); conditions: 25 mg/kg salsalate
Experimental: as §1

SMILES: O=C(Oc1ccccc1C(=O)O)c1ccccc1O [salsalate]
- TBI-induced increase of IL-1β in cerebral cortex [1]: this increase is not attenuated
- phosphorylation of tau at S262 in hippocampus [2]: remains significantly decreased in hippocampus
- body weight [3]: Body weight was not altered
- TBI-induced increase of CCL2 in cerebral cortex [4]: this increase is not attenuated
